Test system: ATF4 luciferase reporter in HEK293T cells
Test: ATF4-Luc assay (in vitro model of VWMD)
Assay type: cell-based, human
Conditions: Homo sapiens, HEK-293T, 7 h, HEK293T cells carrying the ATF4 luciferase reporter, 1 μg/mL tunicamycin, One Glo luminescence
Procedure, shortened: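 Stable HEK293T line expressing firefly luciferase behind the human ATF4 5′-UTR, treated with 1 μg/mL tunicamycin plus compound for 7 hours. Luminescence read with One Glo; EC50 determined.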

O=C(CO[C@H]1C[C@@H](OC(F)(F)F)C1)NC12CC(NC(=O)[C@H]3C[C@@H](O)c4cc(Cl)ccc4O3)(C1)C2 (racemic) [Compound 114, rac-(2R,4R)-6-chloro-4-hydroxy-N-[3-(2-{[(1s,3s)-3-(trifluoromethoxy)cyclobutyl]oxy}acetamido)bicyclo[1.1.1]pentan-1-yl]-3,4-dihydro-2H-1-benzopyran-2-carboxamide]
EC50: < 10 nM

COc1ccc2nn(C34CC(NC(=O)[C@H]5C[C@@H](O)c6cc(Cl)c(F)cc6O5)(C3)C4)cc2n1 [Compound 506, (2R,4R)-6-chloro-7-fluoro-4-hydroxy-N-[3-(5-methoxy-2H-pyrazolo[4,3-b]pyridin-2-yl)bicyclo[1.1.1]pentan-1-yl]-3,4-dihydro-2H-1-benzopyran-2-carboxamide]
EC50: < 10 nM

O=C(NC12CC(n3cc(C(=O)N4CC(OC(F)(F)F)C4)cn3)(C1)C2)[C@H]1C[C@@H](O)c2cc(Cl)ccc2O1 [Compound 341, (2R,4R)-6-chloro-4-hydroxy-N-(3-{4-[3-(trifluoromethoxy)azetidine-1-carbonyl]-1H-pyrazol-1-yl}bicyclo[1.1.1]pentan-1-yl)-3,4-dihydro-2H-1-benzopyran-2-carboxamide]
EC50: 10 to 50 nM

O=C(NC12CC(n3cc(C4CCN(CC(F)(F)F)CC4)cn3)(C1)C2)[C@H]1C[C@@H](O)c2cc(Cl)ccc2O1 [Compound 580, (2R,4R)-6-chloro-4-hydroxy-N-(3-{4-[1-(2,2,2-trifluoroethyl)piperidin-4-yl]-1H-pyrazol-1-yl}bicyclo[1.1.1]pentan-1-yl)-3,4-dihydro-2H-1-benzopyran-2-carboxamide]
EC50: < 10 nM

O=C(N[C@H]1CC[C@H](n2cc(OCCOC(F)(F)F)cn2)CC1)[C@H]1C[C@@H](O)c2cc(Cl)ccc2O1 [Compound 421, (2R,4R)-6-chloro-4-hydroxy-N-[(1r,4R)-4-{4-[2-(trifluoromethoxy)ethoxy]-1H-pyrazol-1-yl}cyclohexyl]-3,4-dihydro-2H-1-benzopyran-2-carboxamide]
EC50: < 10 nM

O=C(NC12CC(n3cc(OCCCC(F)(F)F)cn3)(C1)C2)[C@H]1C[C@@H](O)c2cc(C(F)(F)F)c(F)cc2O1 [Compound 641, (2R,4R)-7-fluoro-4-hydroxy-N-{3-[4-(4,4,4-trifluorobutoxy)-1H-pyrazol-1-yl]bicyclo[1.1.1]pentan-1-yl}-6-(trifluoromethyl)-3,4-dihydro-2H-1-benzopyran-2-carboxamide]
EC50: < 10 nM

O=C(NC12CC(n3cc(-c4cnn(CC(F)(F)F)c4)cn3)(C1)C2)[C@H]1C[C@@H](O)c2cc(Cl)c(Cl)cc2O1 [Compound 565, (2R,4R)-6,7-dichloro-4-hydroxy-N-{3-[1′-(2,2,2-trifluoroethyl)-1H,1′H-[4,4′-bipyrazol]-1-yl]bicyclo[1.1.1]pentan-1-yl}-3,4-dihydro-2H-1-benzopyran-2-carboxamide]
EC50: < 10 nM

O=C(COc1ccc(Cl)cc1O)NC12CC(n3cc(OCCOC(F)(F)F)cn3)(C1)C2 [Compound 616, 2-(4-chloro-2-hydroxyphenoxy)-N-(3-{4-[2-(trifluoromethoxy)ethoxy]-1H-pyrazol-1-yl}bicyclo[1.1.1]pentan-1-yl)acetamide]
EC50: < 10 nM

O=C(NC12CC(c3cn(-c4ccc(OC(F)(F)F)cc4)nn3)(C1)C2)[C@H]1C[C@@H](O)c2cc(Cl)ccc2O1 [Compound 360, (2R,4R)-6-chloro-4-hydroxy-N-(3-{1-[4-(trifluoromethoxy)phenyl]-1H-1,2,3-triazol-4-yl}bicyclo[1.1.1]pentan-1-yl)-3,4-dihydro-2H-1-benzopyran-2-carboxamide]
EC50: < 10 nM

O=C(N[C@H]1CC[C@H](n2cc(OCCCC(F)(F)F)cn2)CC1)[C@H]1C[C@@H](O)c2cc(Cl)ccc2O1 [Compound 526, (2R,4R)-6-chloro-4-hydroxy-N-{(1r,4R)-4-[4-(4,4,4-trifluorobutoxy)-1H-pyrazol-1-yl]cyclohexyl}-3,4-dihydro-2H-1-benzopyran-2-carboxamide]
EC50: 10 to 50 nM

C[C@@H](COC(F)(F)F)Oc1cnn(C23CC(NC(=O)[C@H]4C[C@@H](O)c5cc(Cl)ccc5O4)(C2)C3)c1 [Compound 439, (2R,4R)-6-chloro-4-hydroxy-N-[3-(4-{[(2S)-1-(trifluoromethoxy)propan-2-yl]oxy}-1H-pyrazol-1-yl)bicyclo[1.1.1]pentan-1-yl]-3,4-dihydro-2H-1-benzopyran-2-carboxamide]
EC50: < 10 nM

O=C(NC12CC(n3cc(CCOC(F)(F)F)cn3)(C1)C2)[C@H]1C[C@@H](O)c2cc(Cl)c(F)cc2O1 [Compound 515, (2R,4R)-6-chloro-7-fluoro-4-hydroxy-N-(3-{4-[2-(trifluoromethoxy)ethyl]-1H-pyrazol-1-yl}bicyclo[1.1.1]pentan-1-yl)-3,4-dihydro-2H-1-benzopyran-2-carboxamide]
EC50: 10 to 50 nM

O=C(NC12CC(c3ccc(C(=O)N4CC(OC(F)(F)F)C4)nc3)(C1)C2)[C@H]1C[C@@H](O)c2cc(Cl)ccc2O1 [Compound 536, (2R,4R)-6-chloro-4-hydroxy-N-(3-{6-[3-(trifluoromethoxy)azetidine-1-carbonyl]pyridin-3-yl}bicyclo[1.1.1]pentan-1-yl)-3,4-dihydro-2H-1-benzopyran-2-carboxamide]
EC50: < 10 nM

COCCOc1cnn(C23CC(NC(=O)[C@H]4C[C@@H](O)c5cc(Cl)ccc5O4)(C2)C3)c1 [Compound 426, (2R,4R)-6-chloro-4-hydroxy-N-{3-[4-(2-methoxyethoxy)-1H-pyrazol-1-yl]bicyclo[1.1.1]pentan-1-yl}-3,4-dihydro-2H-1-benzopyran-2-carboxamide]
EC50: 250 to 500 nM

O=C(NC12CC(n3cnc(C4CC(OC(F)(F)F)C4)c3)(C1)C2)[C@H]1C[C@@H](O)c2cc(C(F)(F)F)ccc2O1 (stereo partly drawn) [Compound 471, (2R,4R)-4-hydroxy-N-(3-{4-[(1s,3S)-3-(trifluoromethoxy)cyclobutyl]-1H-imidazol-1-yl}bicyclo[1.1.1]pentan-1-yl)-6-(trifluoromethyl)-3,4-dihydro-2H-1-benzopyran-2-carboxamide]
EC50: < 10 nM

O=C(NC12CC(n3cc(-c4ccc(OC(F)(F)F)cn4)cn3)(C1)C2)[C@H]1C[C@@H](O)c2cc(Cl)c(Cl)cc2O1 [Compound 566, (2R,4R)-6,7-dichloro-4-hydroxy-N-(3-{4-[5-(trifluoromethoxy)pyridin-2-yl]-1H-pyrazol-1-yl}bicyclo[1.1.1]pentan-1-yl)-3,4-dihydro-2H-1-benzopyran-2-carboxamide]
EC50: < 10 nM

O=C(NC12CC(n3cc(C4CC(OC(F)(F)F)C4)nn3)(C1)C2)[C@H]1C[C@@H](O)c2cc(C(F)(F)F)ccc2O1 (stereo partly drawn) [Compound 470, (2R,4R)-4-hydroxy-N-(3-{4-[(1s,3S)-3-(trifluoromethoxy)cyclobutyl]-1H-1,2,3-triazol-1-yl}bicyclo[1.1.1]pentan-1-yl)-6-(trifluoromethyl)-3,4-dihydro-2H-1-benzopyran-2-carboxamide]
EC50: < 10 nM

O=C(NC12CC(n3cc(N4CC[C@@H](OC(F)(F)F)C4)cn3)(C1)C2)[C@H]1C[C@@H](O)c2cc(Cl)c(F)cc2O1 [Compound 389, (2R,4R)-6-chloro-7-fluoro-4-hydroxy-N-(3-{4-[(3R)-3-(trifluoromethoxy)pyrrolidin-1-yl]-1H-pyrazol-1-yl}bicyclo[1.1.1]pentan-1-yl)-3,4-dihydro-2H-1-benzopyran-2-carboxamide]
EC50: < 10 nM

O=C(COc1ccc(Cl)c(F)c1)NC12CC(C(=O)NC34CC(C(F)(F)F)(C3)C4)(C1)C2 [Compound 353, 3-[2-(4-chloro-3-fluorophenoxy)acetamido]-N-[3-(trifluoromethyl)bicyclo[1.1.1]pentan-1-yl]bicyclo[1.1.1]pentane-1-carboxamide]
EC50: 50 to 250 nM

O=C(NC12CC(c3cn(-c4ccc(Cl)c(F)c4)nn3)(C1)C2)[C@H]1C[C@@H](O)c2cc(Cl)ccc2O1 [Compound 311, (2R,4R)-6-chloro-N-{3-[1-(4-chloro-3-fluorophenyl)-1H-1,2,3-triazol-4-yl]bicyclo[1.1.1]pentan-1-yl}-4-hydroxy-3,4-dihydro-2H-1-benzopyran-2-carboxamide]
EC50: < 10 nM

O=C(NC12CC(c3ccnc(-n4cc(C(F)(F)F)cn4)c3)(C1)C2)[C@H]1C[C@@H](O)c2cc(C(F)(F)F)ccc2O1 [Compound 558, (2R,4R)-4-hydroxy-6-(rifluoromethyl)-N-(3-{2-[4-(trifluoromethyl)-1H-pyrazol-1-yl]pyridin-4-yl}bicyclo[1.1.1]pentan-1-yl)-3,4-dihydro-2H-1-benzopyran-2-carboxamide]
EC50: 10 to 50 nM

O=C(NC12CC(n3cc(OCCOC(F)(F)F)cn3)(C1)C2)[C@H]1C[C@@H](O)c2cc(Cl)ccc2O1 [Compound 412, (2R,4R)-6-chloro-4-hydroxy-N-(3-{4-[2-(trifluoromethoxy)ethoxy]-1H-pyrazol-1-yl}bicyclo[1.1.1]pentan-1-yl)-3,4-dihydro-2H-1-benzopyran-2-carboxamide]
EC50: < 10 nM

O=C(NC12CC(n3cc([C@@H]4C[C@H]4COC(F)(F)F)cn3)(C1)C2)[C@H]1C[C@@H](O)c2cc(Cl)ccc2O1 (mixture of isomers) [Compound 372, (2R,4R)-6-chloro-4-hydroxy-N-[3-(4-{(1RS,2RS)-2-[(trifluoromethoxy)methyl]cyclopropyl}-1H-pyrazol-1-yl)bicyclo[1.1.1]pentan-1-yl]-3,4-dihydro-2H-1-benzopyran-2-carboxamide]
EC50: 10 to 50 nM

COc1ncc(-c2cnn(C34CC(NC(=O)[C@H]5C[C@@H](O)c6cc(C(F)(F)F)c(F)cc6O5)(C3)C4)c2)cn1 [Compound 639, (2R,4R)-7-fluoro-4-hydroxy-N-{3-[4-(2-methoxypyrimidin-5-yl)-1H-pyrazol-1-yl]bicyclo[1.1.1]pentan-1-yl}-6-(trifluoromethyl)-3,4-dihydro-2H-1-benzopyran-2-carboxamide]
EC50: < 10 nM

O=C(NC12CC(n3cc(-c4ccc(OC(F)(F)F)cc4)nn3)(C1)C2)[C@H]1C[C@@H](O)c2cc(Cl)ccc2O1 [Compound 357, (2R,4R)-6-chloro-4-hydroxy-N-(3-{4-[4-(trifluoromethoxy)phenyl]-1H-1,2,3-triazol-1-yl}bicyclo[1.1.1]pentan-1-yl)-3,4-dihydro-2H-1-benzopyran-2-carboxamide]
EC50: < 10 nM

Reference: patent US20250145594A1, “MODULATORS OF THE INTEGRATED STRESS PATHWAY” (Calico Life Sciences LLC, priority 2020, published 2025)
